Key:
Test in all cases: combination Emax (second highest fraction inhibited in the dose matrix, 72 h); higher = more inhibition; extreme values may be limits of the assay
[1] = test system: AsPC-1 (Pancreatic Carcinoma)
Outline: (§1)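 Cell lines in DMEM/F12 or RPMI with 10% FBS were plated in 1536-well plates, held 24 hours at 37°C, 5% CO2, then given two-drug dose matrices for 72 hours (DMSO typically 0.2%). Viability was read by CellTiter-Glo 2.0 luminescence and scaled as inhibition from 0 (vehicle wells) to 1 (blank wells). Combination Emax is the second-highest inhibition in the matrix; Bliss excess is observed combination effect minus expected EA + EB − EA·EB, EA and EB being single-agent effects.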

[2] = test system: LOUCY (T-Lymphoblastic Leukemia)
Outline: as §1

HuO-3N1 (Osteosarcoma) = test system: HuO-3N1 (Osteosarcoma)
Outline: as §1

[3] = test system: JHH-1 (Hepatocellular Carcinoma)
Outline: as §1

[4] = test system: PC-14 (Lung Adenocarcinoma)
Outline: as §1

[5] = test system: NCI-H810 (Non-Small Cell Lung Carcinoma)
Outline: as §1

[6] = test system: PANC-02-03 (Pancreatic Carcinoma)
Outline: as §1

[7] = test system: OVTOKO (Ovarian Carcinoma)
Outline: as §1

[8] = test system: OCI-AML5 (Acute Myeloid Leukemia)
Outline: as §1

[9] = test system: RERF-LC-KJ (Lung Adenocarcinoma)
Outline: as §1

[10] = test system: NKM-1 (Acute Myeloid Leukemia)
Outline: as §1

[11] = test system: OV-90 (Ovarian Carcinoma)
Outline: as §1

[12] = test system: Caov-3 (Ovarian Carcinoma)
Outline: as §1

[13] = test system: NCI-H196 (Small Cell Lung Carcinoma)
Outline: as §1

786-0 (Kidney Carcinoma) = test system: 786-0 (Kidney Carcinoma)
Outline: as §1

[14] = test system: RMG-I (Ovarian Carcinoma)
Outline: as §1

[15] = test system: SK-MM-2 (Plasma Cell Myeloma)
Outline: as §1

[16] = test system: HTC-C3 (Thyroid Gland Carcinoma)
Outline: as §1

[17] = test system: KYSE-70 (Esophageal Squamous Cell Carcinoma)
Outline: as §1

[18] = test system: RL95-2 (Endometrial Carcinoma)
Outline: as §1

SMILES	combination Emax [1]	combination Emax [2]	combination Emax (HuO-3N1 (Osteosarcoma))	combination Emax [3]	combination Emax [4]	combination Emax [5]	combination Emax [6]	combination Emax [7]	combination Emax [8]	combination Emax [9]	combination Emax [10]	combination Emax [11]	combination Emax [12]	combination Emax [13]	combination Emax (786-0 (Kidney Carcinoma))	combination Emax [14]	combination Emax [15]	combination Emax [16]	combination Emax [17]	combination Emax [18]
CC1(C)CCC(CN2CCN(c3ccc(C(=O)NS(=O)(=O)c4ccc(NCC5CCOCC5)c([N+](=O)[O-])c4)c(Oc4cnc5[nH]ccc5c4)c3)CC2)=C(c2ccc(Cl)cc2)C1 [Venetoclax] + COc1cc(Nc2ncc3c(n2)-c2ccc(Cl)cc2C(c2c(F)cccc2OC)=NC3)ccc1C(=O)O [Alisertib] (first compound max 1 µM, 7x7, partner max 10 µM)	0.136	1	0.372	0.567	0.741	0.53	0.292	0.484	1	0.48	0.98	0.248	0.838	0.113	0.37	0.371	1	0.365	0.392	0.588
CC1(C)CCC(CN2CCN(c3ccc(C(=O)NS(=O)(=O)c4ccc(NCC5CCOCC5)c([N+](=O)[O-])c4)c(Oc4cnc5[nH]ccc5c4)c3)CC2)=C(c2ccc(Cl)cc2)C1 [Venetoclax] + C[C@@H]1COCCN1C2=NC(=NC(=C2)C3(CC3)[S@](=N)(=O)C)C4=C5C=CNC5=NC=C4 [AZD6738] (first compound max 1 µM, 7x7, partner max 10 µM)	0.264	1	0.393	0.609	0.845	0.577	0.508	0.566	1	0.313	1	0.533	0.794	0.376	0.712	0.545	1	0.674	0.433	0.691
CC1(C)CCC(CN2CCN(c3ccc(C(=O)NS(=O)(=O)c4ccc(NCC5CCOCC5)c([N+](=O)[O-])c4)c(Oc4cnc5[nH]ccc5c4)c3)CC2)=C(c2ccc(Cl)cc2)C1 [Venetoclax] + C[C@@H](Nc1cc(F)cc(F)c1)c1cc(C(=O)N(C)C)cc2c(=O)cc(N3CCOCC3)oc12 [AZD8186] (first compound max 1 µM, 7x7, partner max 3 µM)	0.104	1	0.269	0.172	0.175	0.0592	0.147	0.521	1	0.195	1	0.164	0.797	0.218	0.267	0.277	1	0.149	0.0812	0.106
CC1(C)CCC(CN2CCN(c3ccc(C(=O)NS(=O)(=O)c4ccc(NCC5CCOCC5)c([N+](=O)[O-])c4)c(Oc4cnc5[nH]ccc5c4)c3)CC2)=C(c2ccc(Cl)cc2)C1 [Venetoclax] + Cc1cc2ncnn2cc1Nc1ncc2c(n1)n(C1CCOCC1)c(=O)n2C [AZD7648] (first compound max 1 µM, 7x7, partner max 10 µM)	0.246	1	0.228	0.199	0.293	0.221	0.208	0.381	0.943	0.357	0.959	0.298	0.528	0.121	0.136	0.312	1	0.205	0.169	0.194
CC1(C)CCC(CN2CCN(c3ccc(C(=O)NS(=O)(=O)c4ccc(NCC5CCOCC5)c([N+](=O)[O-])c4)c(Oc4cnc5[nH]ccc5c4)c3)CC2)=C(c2ccc(Cl)cc2)C1 [Venetoclax] + Cn1cnc2c(F)c(Nc3ccc(Br)cc3Cl)c(C(=O)NOCCO)cc21 [Selumetinib] (first compound max 1 µM, 7x7, partner max 3 µM)	0.403	1	0.146	0.272	0.22	0.0631	0.367	0.163	1	0.185	0.975	0.571	0.603	0.077	0.16	0.267	1	0.508	0.19	0.332
